Patent US20260272952A1, “CANNABINOIDS FOR TREATING NEUROINFLAMMATION” (Lundquist Institute for Biomedical Innovation at …, priority 2022, published 2026)

System: MPS IIIA neurons
Assay: GABARAPL2 western blot in iPSC-derived cortical neurons treated with CBD
Assay type: cell-based, human
Conditions: CBD 1 μM and 5 μM, cortical neurons from MPS IIIA patients' iPSCs, with or without Bafilomycin A1 200 nM
Description: HCNT: human health controls; MPS IIIA: MPS IIIA forebrain neurons.
Cortical neurons differentiated from healthy control and MPS IIIA patients' iPSCs. […] GABARAPL2, a protein which involves in autophagy, was measured in a western blot assay (see FIG. 3).

Cannabidiol [CBD]
GABARAPL2 accumulation: decreases
